Experimental data published in patent US12447171B2 (CELGENE QUANTICEL RESEARCH, INC., priority 2019, dated 2025).

System: activating transcription factor 3 (ATF3)
Experiment: ATF3 expression (RNAseq, real-time PCR) in MV4-11 cells
Assay type: cell-based
Procedure: After treatment, cells were recovered, washed once in PBS, and flash frozen as cell pellets. Cell pellets were sent to Canopy Biosciences for RNA extraction and library preparation and sequencing. RNA was extracted using the Qiagen RNeasy Mini Kit according to manufacturer's instructions. A modified protocol was used to preserve miRNA species. Total RNA Seq libraries were prepared using 200 ng of total RNA and the NEBNext Ultra II Directional Library prep kit. rRNA depletion was performed using an RNase-H based method (New England Biolabs, Ipswich, MA). MCL1 RNA levels in other cell lines were quantified by RNASeq using standard methods.
Libraries were multiplexed and sequenced using Illumina HiSeq. All gene counts were then imported into the R/Bioconductor package EdgeR and TMM normalization size factors were calculated to adjust for samples for differences in library size. Ribosomal genes and genes not expressed in the smallest group size minus one samples greater than one count-per-million were excluded from further analysis. […] Global perturbations in known Gene Ontology (GO) terms and KEGG pathways were detected using the R/Bioconductor package GAGE to test for changes in expression of the reported log 2 fold-changes reported by Limma in each term versus the background log 2 fold-changes of all genes found outside the respective term. […]

`Nc1ncn([C@@H]2O[C@H](CO)[C@@H](O)[C@H]2O)c(=O)n1` [5-azacytidine, 4-amino-1-B-D-ribofuranosyl-1,3,5-triazin-2(1H)-one] was tested, and the “ATF3 expression (real-time PCR)” value (MV4-11, 0.3 μM 5-azacytidine, 24 or 48 hours) was “not sufficient to induce ATF3 expression” and the ATF3 expression increase (RNAseq, MV4-11, 1 μM, 48 hours) was “two-fold”.
